According to patent publication US20040039001A1, “2-guanidino-4-aryl-quinazoline” (priority 2000, published 2004):
Structures can show the parent of a compound that is named as a salt.

melting point	SMILES
310 °C	Cl.N=C(N)Nc1nc(-c2ccccc2)c2c(O)cccc2n1
175 to 180 °C	C[S+]([O-])c1ccc2nc(NC(=N)N)nc(-c3ccccc3)c2c1 (stereo not shown) [Example 5, N-(6-methanesulfinyl-4-phenylquinazolin-2-yl)guanidine]
180 to 185 °C	CS(=O)(=O)c1ccc2nc(NC(=N)N)nc(-c3ccccc3)c2c1 (as salt: HCl) [Example 6, N-(6-methanesulfonyl-4-phenylquinazolin-2-yl)guanidine]
264 to 267 °C	CN=C(NC)Nc1nc(-c2ccccc2)c2cc(Cl)ccc2n1.Cl
